How the values were obtained:
[1] = molecular target: T1, human aldosterone synthase (CYP11B2) (Homo sapiens, UniProt P19099); assay: Test for CYP11B2 inhibitors in V79 MZh11B2 cells (test system B); assay type: cell-based; details: for inhibition at 0.5 µM: V79MZh11B2, Table 2, percentage inhibition, inhibitor concentration 0.5 μM, read-out: % (0.5 μM) hCYP11B2; for IC50: Table 1, V79 MZh11B2 cells, read-out: IC50 V79 11B2 hCYP11B2
T1 construct: expressed in transfected cells; host or cells: V79 MZh11B2 (V79 Chinese hamster cells)
T1 sequence (P19099 25-503): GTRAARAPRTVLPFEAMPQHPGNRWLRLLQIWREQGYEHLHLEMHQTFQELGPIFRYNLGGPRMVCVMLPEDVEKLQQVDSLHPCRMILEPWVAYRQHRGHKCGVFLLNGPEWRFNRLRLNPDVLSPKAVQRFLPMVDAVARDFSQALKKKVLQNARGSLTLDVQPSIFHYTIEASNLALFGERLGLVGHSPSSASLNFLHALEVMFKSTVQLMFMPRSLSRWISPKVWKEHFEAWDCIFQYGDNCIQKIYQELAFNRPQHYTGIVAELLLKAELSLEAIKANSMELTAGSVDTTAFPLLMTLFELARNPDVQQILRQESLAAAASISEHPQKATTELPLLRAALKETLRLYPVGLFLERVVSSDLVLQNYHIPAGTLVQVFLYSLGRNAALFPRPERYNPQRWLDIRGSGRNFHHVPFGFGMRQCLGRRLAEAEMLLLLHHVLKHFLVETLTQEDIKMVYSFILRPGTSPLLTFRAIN
Experimental: B) Test for CYP11B2 Inhibitors (V79 MZh Cells):
(§1) Maintenance of the cells: V79 MZh11B2 and V79 MZh11B1, which recombinantly express human aldosterone synthase (CYP11B2) or steroid 11-β-hydroxylase CYP11B1) and were prepared according to Denner et al. (Denner, K. et al., Pharmacogenetics 5:89-96 (1995)), were cultured in cell culture dishes of 60 or 90 mm diameter in a CO2 incubator at 37° C. and in a water-saturated atmosphere containing 5% of CO2. Both cell lines were cultured in DMEM^+, which contained 10% of FCS and the antibiotics penicillin and streptomycin (1%) for protection from bacterial contamination. The cells were passaged every 2 to 3 days following treatment with trypsin/EDTA, since the doubling […], according to cell count, was 1 to 2 days. The cells were passaged up to 12 to 15 times in order to exclude possible cell changes. If needed, freshly thawed cells were employed.
(§2) Inhibition test: V79 MZh11B2- and V79 MZh11B1 cells (8·10^5 cells per well) were grown to confluence in 24-well cell culture plates with a 1.9 cm^2 culture area per hole (Nunc, Roskilde, Denmark). Before the test, the DMEM culture medium present was removed, and 450 μl of fresh DMEM with inhibitor were added to each hole in at least three different concentrations in order to determine the IC50 value. After preincubation (60 min, 37° C.), the reaction was started by the addition of 50 μl of DMEM containing 2.5 μl of a solution of the substrate 11-deoxycorticosterone (20 μM, containing 1.25 nCi of [4-^14C]11-deoxycorticosterone, in ethanol). The plate was then kept in the CO2 incubator at 37° C. and under 5% CO2. The V79 MZh11B1 cells were incubated for 120 min, the V79 MZh11B2 cells for 40 min. Controls not containing inhibitor were treated in the same manner. The enzyme reactions were stopped by extraction of the supernatant with 500 μl of EtOAc. The samples were centrifuged (10000×g, 2 min), and the solution was removed and evaporated. The residue was taken up in 10 μl of chloroform and analyzed by HPTLC (see below).
For V79 MZh11B2, the conversion followed according to equation 3: […]
(§3) The percentage inhibition which was caused by an inhibitor in the concentration employed in each case was calculated according to equation 2.
(§4) It was calculated by determining the percentage inhibition at least 3 different inhibitor concentrations, which must all lie in the linear range of the sigmoidal IC50 curve (log C/% inhibition). The calculation was carried out by linear regression. The values determined were only used if they formed a straight line at a probability r of >0.95.
(§5) The resuspended residue from example A) or B)—containing the radiolabeled steroids—was applied to an HPTLC plate (20×10 cm, silica gel 60F254) with a concentration zone (Merck, Darmstadt, Germany). The plate was developed twice using the mobile phase chloroform/methanol/water (300:20:1). Unlabeled […] and corticosterone were applied as a reference for the CYP11B1 reaction. For the CYP11B2 reaction, 11-deoxycorticosterone, corticosterone, 18-hydroxycorticosterone and aldosterone were used as a reference. The unlabeled references were detected at 260 nm. Subsequently, imaging plates (BAS MS2340, for ^14C samples, Raytest, Straubenhardt, Germany) were exposed for 48 h with the HPTLC plates. The imaging plates were scanned using the Phosphoimager system Fuji FLA 3000 (Raytest, Straubenhardt, Germany) and the steroids were quantified.

[2] = molecular target: T2, steroid 11-β-hydroxylase CYP11B1 (hCYP11B1) (Homo sapiens, UniProt P15538); assay: Inhibition test in V79 MZh11B1 cells (test system B); assay type: cell-based; details: for % (0.5 μM) hCYP11B1: Table 2, percentage inhibition, inhibitor concentration 0.5 μM; for IC50: Table 1, V79 MZh11B1 cells, read-out: IC50 V79 11B1 hCYP11B1
T2 construct: expressed in transfected cells; host or cells: V79 MZh11B1 (V79 Chinese hamster cells)
T2 sequence (P15538 25-503): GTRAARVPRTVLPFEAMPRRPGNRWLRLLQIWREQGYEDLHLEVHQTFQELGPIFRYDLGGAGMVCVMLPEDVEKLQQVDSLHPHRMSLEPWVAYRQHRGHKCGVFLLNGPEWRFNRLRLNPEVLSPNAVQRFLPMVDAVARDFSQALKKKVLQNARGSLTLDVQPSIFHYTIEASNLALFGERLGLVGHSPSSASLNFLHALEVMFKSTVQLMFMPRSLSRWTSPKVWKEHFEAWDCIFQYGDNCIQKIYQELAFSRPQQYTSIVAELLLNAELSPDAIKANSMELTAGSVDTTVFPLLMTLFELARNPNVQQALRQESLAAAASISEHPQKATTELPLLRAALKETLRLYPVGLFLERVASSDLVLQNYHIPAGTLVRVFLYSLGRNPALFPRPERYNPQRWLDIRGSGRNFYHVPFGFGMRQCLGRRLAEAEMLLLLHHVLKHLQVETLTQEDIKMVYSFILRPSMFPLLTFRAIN
Experimental: as §1, §2
In the case of V79 MZh11B1, conversion was calculated analogously to equation 1, wherein: […]
as §3, §4, §5

| inhibition at 0.5 µM [1] [%] | % (0.5 μM) hCYP11B1 [2] [%] | melting point [°C] | IC50 [1] [nM] | IC50 [2] [nM] | Compound |
| --- | --- | --- | --- | --- | --- |
| 95 | 51 | 150 | – | – | COc1cncc(-c2cc3c4c(c2)CCC(=O)N4CCC3)c1 [Example 19, 9-(5-Methoxypyridin-3-yl)-1,2,6,7-tetrahydro-5H-pyrido[3,2,1-ij]quinolin-3-one] |
| – | – | 91 | 21 | 5970 | CCN1C(=O)CCc2cc(-c3cccnc3)ccc21 [Example 9, 1-Ethyl-6-pyridin-3-yl-3,4-dihydro-1H-quinolin-2-one] |
| – | – | 178 | 3.8 | 1670 | O=C1CCc2cc(-c3cccnc3)cc(Cl)c2N1 [Example 12, 8-Chloro-6-pyridin-3-yl-3,4-dihydro-1H-quinolin-2-one] |
| – | – | 159 | 0.2 | 87 | COc1cncc(-c2ccc3c(c2)CCC(=O)N3C)c1 [Example 6, 6-(5-Methoxypyridin-3-yl)-1-methyl-3,4-dihydro-1H-quinolin-2-one] |
| – | 49 | 267 | – | – | S=C1CCc2cc(-c3cccnc3)ccc2N1 [Example 8, 6-Pyridin-3-yl-3,4-dihydro-1H-quinoline-2-thione] |
| – | 97 | 176 | – | – | CN1C(=O)CCc2cc(-c3cncc4ccccc34)ccc21 [Example 7, 6-Isoquinolin-4-yl-1-methyl-3,4-dihydro-1H-quinolin-2-one] |
| – | 49 | 240 | – | – | O=C1CSc2cc(-c3cccnc3)ccc2N1 [Example 14, 7-Pyridin-3-yl-4H-benzo[1,4]thiazin-3-one] |
| 87 | 24 | 124 | – | – | O=C1CCc2cc(-n3ccnc3)cc3c2N1CC3 [Example 28, 8-Imidazol-1-yl-1,2,5,6-tetrahydro-pyrrolo[3,2,1-ij]quinolin-4-one] |
| – | – | 189 | 28 | 6750 | O=C1CCc2cc(-c3cccnc3)ccc2N1 [Example 1, 6-Pyridin-3-yl-3,4-dihydro-1H-quinolin-2-one] |

Source: patent US8541404B2, “Inhibitors of the human aldosterone synthase CYP11B2” (ElexoPharm GmbH, priority 2009, dated 2013)
